# Data as given in patent US20220290237A1, “METHOD FOR PREDICTING THE RESPONSE OF ANTIPSYCHOTIC DRUGS” (INSERM (INSTITUT NATIONAL DE LA SANTÉ ET DE LA RECHERCHE …, priority 2019, published 2022).
# Test system: total RNA from PBMCs
# Test: RNA-seq gene expression before and after 4 weeks of amisulpride treatment
# Type: in vivo, human
# Conditions: 4 weeks amisulpride
# Source text: The cohort analysed in this study was obtained from the OPTiMiSE clinical trial (http://www.optimisetrial.eu) (29). After providing written informed consent, 491 patients with a first episode psychosis were included and 453 started medication. All patients were diagnosed with schizophrenia, schizophreniform disorder or schizoaffective disorder according to the Diagnostic and Statistical Manual of Mental Disorders, Fourth Edition (DSM-IV) and confirmed on the basis of the Mini International Neuropsychiatric Interview Plus (M.I.N.I. Plus) (30) (table 4). At baseline, patients were medication-naïve or minimally-treated (any antipsychotic medication used for […] 2 weeks in the previous year or for a total of 6 weeks in their lifetime) and were ill for no longer than 2 years. Only subjects involved in the single-treatment arm (phase 1) of the trial were considered for this study (29). All patients were treated for 4 weeks with amisulpride (200-800 mg/day orally). At the end of the 4-week treatment, the blood concentration of antipsychotic used has been determined. This measurement provided a reliable indication of the treatment compliance of individual patients.
# A DNase digestion procedure was added after extraction. Total RNA was purified using the RNA Clean & Concentrator™-5 kit following the manufacturer's instructions (Zymo Research Corp., Irvine, USA). RNA quantification was performed on a NanoDrop™ 8000 spectrophotometer, in duplicate. The quality and integrity of the RNA samples were assessed using an Agilent Bioanalyzer 2100 and the RNA6000 Nano Labchip kit (Agilent Technologies). Only samples with an RNA integrity number (RIN) higher than 7 were selected. Three hundred and seventy-six RNA samples fulfilled quality control criteria for RNA-seq analyses, corresponding to two RNA samples (one at inclusion and one after 4 weeks of treatment) for 188 subjects. Forty-eight additional RNAs were available for replication studies, in 24 independent subjects.
# All libraries were prepared using the Illumina TruSeq Stranded Total RNA with Ribo-Zero Globin kit (Illumina Inc., San Diego, Calif., U.S.A.), which removes ribosomal RNA and globin mRNA. Libraries were prepared using one microgram of total RNA as initial input and following the standard protocols. After library quality control, 2×100 bp paired-end (PE) sequencing was performed on a HiSeq4000 system (Illumina), pooling a maximum of 6 samples on each lane, in order to reach 40 to 50 million of PE-reads for each sample. The Illumina pipeline was used to generate raw RNA sequencing data (fastq files) for each sample. Sequence quality controls were performed, using FastQC and in-house bioinformatics pipelines, from a sampling of 2×10 million reads in order to assess the levels of read duplicates, adapters, remaining rRNA and the GC content. Reads were trimmed for adapters and low-quality bases (Phred quality score <30) using Trimmomatic software (v.0.32). Reads were then mapped to the Genome Reference Consortium human genome assembly 37 (GRCh37) reference genome (hg19) using Tophat software (v.2.0.13). Read mapping quality was assessed using RNA-SeQC software. Then, gene-level quantification in read counts was performed by HTSeq software (v.0.6.1), using gene annotation from Ensembl v.86. All downstream analyses were conducted using the statistical software R (v.3.2.4) and Bioconductor R packages. Genes with counts-per million (cpm) below 1 in more than two third of the samples were considered unexpressed and removed from the analysis using edgeR package (v.3.12.1). Raw gene counts matrix has been normalized to account for differences in sequencing depth and RNA composition using the “median ratio” method implemented in the DESeq2 package (v.1.16.1). To avoid batch effects as confounding factors, all subjects had their 2 time-points in a same batch. […]
compound,measurement,setting,value
"CCN1CCCC1CNC(=O)c1cc(S(=O)(=O)CC)c(N)cc1OC (centres unmarked) [amisulpride, 4-amino-N-((1-ethyl-2-pyrrolidinyl)methyl)-5-(etgylsulfonyl)-2-methoxybenzamide]","FC, fold-change at week 4 relative to the expression level at inclusion: AC073172.1",good responders (n = 113),0.72
same,"FC, fold-change at week 4 relative to the expression level at inclusion: AC073172.1",poor responders (n = 75),0.97
same,"FC, fold-change at week 4 relative to the expression level at inclusion: AC092171.4",good responders (n = 113),0.85
same,"FC, fold-change at week 4 relative to the expression level at inclusion: AC092171.4",poor responders (n = 75),1.06
same,"FC, fold-change at week 4 relative to the expression level at inclusion: AC132872.1",good responders (n = 113),0.81
same,"FC, fold-change at week 4 relative to the expression level at inclusion: AC132872.1",poor responders (n = 75),1.05
same,"FC, fold-change at week 4 relative to the expression level at inclusion: ACSL5",good responders (n = 113),1.06
same,"FC, fold-change at week 4 relative to the expression level at inclusion: ACSL5",poor responders (n = 75),0.99
same,"FC, fold-change at week 4 relative to the expression level at inclusion: AL133351.4",good responders (n = 113),0.88
same,"FC, fold-change at week 4 relative to the expression level at inclusion: AL133351.4",poor responders (n = 75),1.04
same,"FC, fold-change at week 4 relative to the expression level at inclusion: AL391832.3",good responders (n = 113),0.88
same,"FC, fold-change at week 4 relative to the expression level at inclusion: AL391832.3",poor responders (n = 75),1.00
same,"FC, fold-change at week 4 relative to the expression level at inclusion: ALG1L13P",good responders (n = 113),0.89
same,"FC, fold-change at week 4 relative to the expression level at inclusion: ALG1L13P",poor responders (n = 75),1.02
same,"FC, fold-change at week 4 relative to the expression level at inclusion: ALPL",good responders (n = 113),0.79
same,"FC, fold-change at week 4 relative to the expression level at inclusion: ALPL",poor responders (n = 75),1.09
same,"FC, fold-change at week 4 relative to the expression level at inclusion: AP000640.1",good responders (n = 113),0.84
same,"FC, fold-change at week 4 relative to the expression level at inclusion: AP000640.1",poor responders (n = 75),1.00
same,"FC, fold-change at week 4 relative to the expression level at inclusion: C15orf54",good responders (n = 113),1.18
same,"FC, fold-change at week 4 relative to the expression level at inclusion: C15orf54",poor responders (n = 75),1.07
same,"FC, fold-change at week 4 relative to the expression level at inclusion: CA4",good responders (n = 113),0.76
same,"FC, fold-change at week 4 relative to the expression level at inclusion: CA4",poor responders (n = 75),1.07
same,"FC, fold-change at week 4 relative to the expression level at inclusion: CXCR6",good responders (n = 113),1.14
same,"FC, fold-change at week 4 relative to the expression level at inclusion: CXCR6",poor responders (n = 75),1.03
same,"FC, fold-change at week 4 relative to the expression level at inclusion: CYSLTR2",good responders (n = 113),1.13
same,"FC, fold-change at week 4 relative to the expression level at inclusion: CYSLTR2",poor responders (n = 75),1.01
same,"FC, fold-change at week 4 relative to the expression level at inclusion: DGAT2",good responders (n = 113),0.87
same,"FC, fold-change at week 4 relative to the expression level at inclusion: DGAT2",poor responders (n = 75),1.08
same,"FC, fold-change at week 4 relative to the expression level at inclusion: DHRS13",good responders (n = 113),0.87
same,"FC, fold-change at week 4 relative to the expression level at inclusion: DHRS13",poor responders (n = 75),1.04
same,"FC, fold-change at week 4 relative to the expression level at inclusion: FAT1",good responders (n = 113),1.27
same,"FC, fold-change at week 4 relative to the expression level at inclusion: FAT1",poor responders (n = 75),1.20
same,"FC, fold-change at week 4 relative to the expression level at inclusion: FBXL13",good responders (n = 113),0.85
same,"FC, fold-change at week 4 relative to the expression level at inclusion: FBXL13",poor responders (n = 75),0.92
same,"FC, fold-change at week 4 relative to the expression level at inclusion: GALNT14","GALNT14, good responders (n = 113)",0.78
